According to patent publication US11813306B2, “Cyclic tetramer compounds as proprotein convertase subtilisin/kexin type 9 (PCSK9) inhibitors for the treatment of metabolic disorders” (NOVARTIS AG, priority 2018, dated 2023):

Molecular target: human PCSK9 (Homo sapiens, UniProt Q8NBP7)
Assay: PCSK9 ligand binding assay (TR-FRET): interference with binding of human PCSK9 to human LDLR
Settings: for IC50: Human PCSK9 Alexa Fluor 647 / Human LDLR extracellular domain-Europium Kryptate; for Max % inhibition: efficacy (Amax), 100% = 1 uM unlabeled human PCSK9, 0% = DMSO
Procedure: Example 10: PCSK9 Ligand Binding Assay
The PCSK9 binding of the compounds of the disclosure were measured using a time resolved fluorescence resonance energy transfer (TR-FRET) assay. This time resolved fluorescence resonance energy transfer (TR-FRET) assay measures the ability of a compound of the present disclosure to interfere with the binding of human PCSK9 to human LDLR, providing measures of both potency (IC50) and efficacy (Amax).
Human PCSK9 Alexa Fluor 647
Human LDLR extracellular domain-Europium Kryptate
Proxi plate-low volume assay plate (PerkinElmer #6008280)
Greiner V-bottom (Greiner BioOne #781280)
Assay Buffer • 20 mM HEPES, pH 7.5 • 150 mM NaCl • 1 mM CaCl2 • 0.01% v/v Tween20 • 0.01% w/v BSA
A master compound plate was prepared in a Greiner V bottom plate by diluting compounds of the disclosure in dimethylsulfoxide to the correct concentration for the desired top concentration based on the desired final concentration: for a 30 uM final concentration the master plate concentration is 1.5 mM (68 uL DMSO+12 uL 10 mM of a compound of the disclosure), for a 10 uM final concentration the master plate concentration is 0.5 mM (76 uL DMSO+4 uL 10 mM of a compound of the disclosure), for a 3 uM final concentration the master plate concentration is 150 uM (69 uL DMSO+1 uL 10 mM of a compound of the disclosure). These solutions were pipetted into columns 1 and 11 of the compound plate. Threefold serial dilutions were generated in columns 2-10 and 12-20 of the compound plate by transferring 10 uL into 20 uL of DMSO. Columns 21 and 22 of the compound plate were negative controls containing DMSO alone.
An intermediate plate was generated in a Greiner V bottom plate by transferring 8 uL from each well of the master plate into a corresponding well containing 92 uL of assay buffer and mixing thoroughly.
A Proxi plate-low volume assay plate was used for the assay. To all wells of the plate was added 10 uL of 16 nM Human PCSK9 Alexa Fluor 647, followed by 5 uL from the intermediate plate. For the positive control wells in columns 23 and 24 of the plate, 5 uL of unlabeled human PCSK9 was added at 4 uM in assay buffer containing 8% DMSO. Following a 30 minute incubation, 5 uL of 4 nM Human LDLR extracellular domain-Europium Kryptate was added and the mixture was incubated for an additional 2 hours.
The TR-FRET signal was measured on an EnVision or PheraStar instrument with a 60 ms delay, 330 nm excitation and 665 nm emission (FRET), and 330 nm excitation and 615 nm (Europium). The FRET ratio (FRET/Europium) was used for calculations.
No inhibition (0%) was observed from the wells containing DMSO (Control) in columns 21 and 22 of the compound plate. Full inhibition (100%) was observed from the wells containing 1 uM human PCSK9 (Control) in columns 23 and 24 of the plate. Data is expressed as percent inhibition: (value—0%)/(100%-0%).

Chain of human PCSK9 (Q8NBP7 153-692): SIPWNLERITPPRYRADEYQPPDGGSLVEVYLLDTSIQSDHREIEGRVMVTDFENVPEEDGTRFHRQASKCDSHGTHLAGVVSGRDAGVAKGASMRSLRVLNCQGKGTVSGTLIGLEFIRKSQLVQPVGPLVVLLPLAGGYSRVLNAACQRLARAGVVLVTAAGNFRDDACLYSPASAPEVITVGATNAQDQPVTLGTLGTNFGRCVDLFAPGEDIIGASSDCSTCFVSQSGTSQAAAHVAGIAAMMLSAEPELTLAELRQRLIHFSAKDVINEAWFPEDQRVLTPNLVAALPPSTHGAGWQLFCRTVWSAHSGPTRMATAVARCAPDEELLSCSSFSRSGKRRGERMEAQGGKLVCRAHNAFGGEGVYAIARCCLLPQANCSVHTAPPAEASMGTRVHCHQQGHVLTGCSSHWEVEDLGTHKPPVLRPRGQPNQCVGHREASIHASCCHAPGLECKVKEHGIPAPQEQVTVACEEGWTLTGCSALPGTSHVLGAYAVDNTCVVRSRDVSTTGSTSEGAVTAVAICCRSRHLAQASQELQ
Chain of human PCSK9 (Q8NBP7 31-152 partner limits assumed): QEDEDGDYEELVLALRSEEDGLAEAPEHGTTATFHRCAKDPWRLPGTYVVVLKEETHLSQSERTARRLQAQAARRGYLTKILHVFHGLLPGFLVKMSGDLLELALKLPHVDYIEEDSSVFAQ

Structure (SMILES) | IC50 [nM] | Max % inhibition [%]
COC[C@@H]1NC(=O)[C@H](C)N(Cc2ccc(Cl)cc2Oc2ccc(-c3cnc(CN(C)C)n3C)nc2)C(=O)C[C@@H](Cc2cccc(C)n2)C(=O)N2CCC[C@@](Cc3ccc(Cl)cc3)(C2)N(C)C1=O [Compound 24, (3R, 7S, 10S, 13R)-6-(4-chloro-2-((6-(2-((dimethylamino)methyl)-1-methyl-1H-imidazol-5-yl)pyridin-3-yl)oxy)benzyl)-13-(4-chlorobenzyl)-10-(methoxymethyl)-7,12-dimethyl-3-((6-methylpyridin-2-yl)methyl)-1,6,9,12-tetraazabicyclo[11.3.1]heptadecane-2,5,8,11-tetraone] | 0.277 | 115.7
COC[C@@H]1NC(=O)[C@H](CCCCN2CCOCC2)N(Cc2ccc(Cl)cc2Oc2ccc(-c3cnc(CN(C)C)n3C)cc2)C(=O)C[C@@H]([C@H]2CCc3ccccc32)C(=O)N(C)C[C@@H](Cc2ccc(Cl)cc2)N(C)C1=O.Cl [Compound 131, (2S, 5S, 8R, 12S)-1-(4-chloro-2-(4-(2-((dimethylamino)methyl)-1-methyl-1H-imidazol-5-yl)phenoxy)benzyl)-8-(4-chlorobenzyl)-12-((R)-2,3-dihydro-1H-inden-1-yl)-5-(methoxymethyl)-7,10-dimethyl-2-(4-morpholinobutyl)-1,4,7,10-tetraazacyclotetradecane-3,6,11,14-tetraone] | 281 | 91.9
C[C@H]1C(=O)N[C@@H](CC(=O)O)C(=O)N(C)[C@H](Cc2ccc(Cl)cc2)CN(C)C(=O)[C@H](Cc2ccccc2)CC(=O)N1Cc1ccc(Cl)cc1Oc1ccc(-c2cnc(CN3CCCC3)n2C)cc1.Cl [Compound 135, 2-((2S, 5S, 8R, 12R)-12-benzyl-1-(4-chloro-2-(4-(1-methyl-2-(pyrrolidin-1-ylmethyl)-1H-imidazol-5-yl)phenoxy)benzyl)-8-(4-chlorobenzyl)-2,7,10-trimethyl-3,6,11,14-tetraoxo-1,4,7,10-tetraazacyclotetradecan-5-yl)acetic acid] | 631 | 91.3
COC[C@@H]1NC(=O)[C@H](C)N(Cc2ccc(Cl)cc2Oc2ccc(-c3cnc(CN(C)C)n3C)nc2)C(=O)C[C@@H](Cc2ccccn2)C(=O)N2CCC[C@@](Cc3ccc(Cl)cc3)(C2)N(C)C1=O [Compound 94, (3R,7S,10S,13R)-6-(4-Chloro-2-((6-(2-((dimethylamino)methyl)-1-methyl-1H-imidazol-5-yl)pyridin-3-yl)oxy)benzyl)-13-(4-chlorobenzyl)-10-(methoxymethyl)-7,12-dimethyl-3-(pyridin-2-ylmethyl)-1,6,9,12-tetraazabicyclo[11.3.1]heptadecane-2,5,8,11-tetraone] | 0.978 | 107.7
C[C@H]1C(=O)N[C@@H](CO)C(=O)N[C@@]2(Cc3ccc(Cl)cc3)CCCN(C2)C(=O)[C@H](Cc2cccnc2)CC(=O)N1Cc1ccc(Cl)cc1Oc1ccc(-c2cnc(CN(C)C)n2C)cc1.Cl [Compound 19, (3R,7S,10S,13R)-6-(4-chloro-2-(4-(2-((dimethylamino)methyl)-1-methyl-1H-imidazol-5-yl)phenoxy)benzyl)-13-(4-chlorobenzyl)-10-(hydroxymethyl)-7-methyl-3-(pyridin-3-ylmethyl)-1,6,9,12-tetraazabicyclo[11.3.1]heptadecane-2,5,8,11-tetraone hydrochloride] | 0.45 | 105.3
C[C@H]1C(=O)N[C@@H](CO)C(=O)N[C@@]2(Cc3ccc(Cl)cc3)CCCN(C2)C(=O)[C@H](CC2CC2)CC(=O)N1Cc1ccc(Cl)cc1Oc1ccc(-c2cnc(CN(C)C(C)(C)C)n2C)cc1 [Compound 162, (3R, 7S, 10S, 13R)-6-(2-(4-(2-((tert-butyl(methyl)amino)methyl)-1-methyl-1H-imidazol-5-yl)phenoxy)-4-chlorobenzyl)-13-(4-chlorobenzyl)-3-(cyclopropylmethyl)-10-(hydroxymethyl)-7-methyl-1,6,9,12-tetraazabicyclo[11.3.1]heptadecane-2,5,8,11-tetraone] | 1.3 | 114.4
COC[C@@H]1NC(=O)[C@H](C)N(Cc2ncc(Cl)cc2Oc2ccc(-c3cnc(CN(C)C)n3C)nc2)C(=O)C[C@@H](Cc2ccccc2)C(=O)N2CCC[C@@](Cc3ccc(Cl)cc3)(C2)N(C)C1=O [Compound 85] | 1.41 | 101.7
COC[C@@H]1NC(=O)[C@H](C)N(Cc2ccc(Cl)cc2Oc2ccc(-c3cnc(CN(C)C)n3C)cc2)C(=O)C[C@@H](Cc2ncco2)C(=O)N2CCC[C@@](Cc3ccc(Cl)cc3)(C2)NC1=O [Compound 35, (3R, 7S, 10S, 13R)-6-(4-chloro-2-(4-(2-((dimethylamino)methyl)-1-methyl-1H-imidazol-5-yl)phenoxy)benzyl)-13-(4-chlorobenzyl)-10-(methoxymethyl)-7-methyl-3-(oxazol-2-ylmethyl)-1,6,9,12-tetraazabicyclo[11.3.1]heptadecane-2,5,8,11-tetraone] | 0.914 | 105.0
C[C@H]1C(=O)N[C@@H](CO)C(=O)N[C@@]2(Cc3ccc(Cl)cc3)CCCN(C2)C(=O)[C@H](Cc2ccccc2)CC(=O)N1Cc1c(F)cc(Cl)cc1Oc1ccc(-c2cnc(CN(C)C)n2C)cc1F [Compound 87, (3R, 7S, 10S, 13R)-3-benzyl-6-(4-chloro-2-(4-(2-((dimethylamino)methyl)-1-methyl-1H-imidazol-5-yl)-2-fluorophenoxy)-6-fluorobenzyl)-13-(4-chlorobenzyl)-10-(hydroxymethyl)-7-methyl-1,6,9,12-tetraazabicyclo[11.3.1]heptadecane-2,5,8,11-tetraone] | 0.58 | 111.7
COC[C@@H]1NC(=O)[C@H](C)N(Cc2ccc(Cl)cc2Oc2ccc(-c3cnc(CN(C)C)n3C)cc2)C(=O)C[C@@H](Cc2ccccn2)C(=O)N2CCC[C@@](Cc3ccc(Cl)cc3)(C2)NC1=O [Compound 21, (3R,7S,10S,13R)-6-(4-Chloro-2-(4-(2-((dimethylamino)methyl)-1-methyl-1H-imidazol-5-yl)phenoxy)benzyl)-13-(4-chlorobenzyl)-10-(methoxymethyl)-7-methyl-3-(pyridin-2-ylmethyl)-1,6,9,12-tetraazabicyclo[11.3.1]heptadecane-2,5,8,11-tetraone] | 0.47 | 107.0
COC[C@@H]1NC(=O)[C@H](C)N(Cc2c(F)cc(Cl)cc2Oc2ccc(-c3cnc(CN(C)C)n3C)nc2)C(=O)C[C@@H](CC(F)(F)F)C(=O)N2CCC[C@@](Cc3ccc(Cl)cc3)(C2)N(C)C1=O [Compound 173] | 1.37 | 107.7
C[C@H]1C(=O)N[C@@H](CO)C(=O)N[C@@]2(Cc3ccc(Cl)cc3)CCCN(C2)C(=O)[C@H]([C@H]2CCc3ccccc32)CC(=O)N1Cc1ccc(Cl)cc1Oc1ccc(-c2cnc(CN(C)C)n2C)cn1 [Compound 31, (3S, 7S, 10S, 13R)-6-(4-chloro-2-((5-(2-((dimethylamino)methyl)-1-methyl-1H-imidazol-5-yl)pyridin-2-yl)oxy)benzyl)-13-(4-chlorobenzyl)-3-((R)-2,3-dihydro-1H-inden-1-yl)-10-(hydroxymethyl)-7-methyl-1,6,9,12-tetraazabicyclo[11.3.1]heptadecane-2,5,8,11-tetraone] | 1.1 | 98.3
